The text below walks through data of patent publication US12329780B2, “Acute and chronic mitochondrial electron transport chain dysfunction treatments and graphenic materials for use thereof” (WILLIAM MARSH RICE UNIVERSITY, priority 2017, dated 2025).

In general, Vmax refers to the rate approached at saturating substrate.

Data set [1] concerns bEnd0.3 murine cerebrovascular endothelial cells. Briefly: Hydrogen peroxide challenge assay in bEnd.3 cells (Calcein AM live cell counts). Format: cell-based. To be noted: MB 0, 5, 10 and 20 μM, with or without 100 μM H2O2. As for the experimental part: The differential properties of MB and PEG-HCCs were tested by using a hydrogen peroxide challenge assay in cultured cells. Hydrogen peroxide exerts toxic effects on endothelial cells through at least four routes: hydroxyl and superoxide radical formation by reacting with reduced species, nitric oxide synthase (NOS) and NADPH oxidase (NOX) stimulation and uncoupling, modulation of mitochondrial permeability, and the Fenton reaction. This employs administering the test agent after the hydrogen peroxide since efficacy under post-injury conditions would be critical for clinical translation.
PEG-HCCs and MB were compared in two standard hydrogen peroxide challenge assays. In the first experiment, bEnd0.3 murine cerebrovascular endothelial cells were treated with PEG-HCCs, and 100 μM H2O2 with and without 8 mg/L PEG-HCCs. The cells were incubated overnight and then then detached and counted using a hemocytometer and Calcein AM to label live cells. (Live cell counts n=32).
A similar assay was performed with MB at 0, 5, 10 and 20 μM given 15 minutes after initial exposure to 100 μM H2O2. […] The inclusion of 100 μM H2O2 further reduced survival.

Data set [2] addresses ferricytochrome C (CytCox) (Homo sapiens, UniProt P99999). Briefly: ETS kinetics: reduction of ferricytochrome C by NADH. Format: biochemical. To be noted: 4 mg/L catalyst, CytCox 40 μM, NADH 0-5 mM.
Data set [3] is described as follows: Midpoint reduction potential. Format: physicochemical. The source says: PEG-HCCs and MB are electrochemically similar with respect to midpoint reduction potentials of +11 mV and ˜0 mV respectively, although PEG-HCCs have a much broader range. PEG-HCCs appear to have similar effects on the electron transport chain as described for MB.
For data set [4] the following is noted: administered intravenously by itself; cited from earlier work.
Data set [5] is described as follows: Deferoxamine degradation in solution by 262 nm UV absorbance. Format: physicochemical. From the text:
FIG. 12 is a graph in which Y-axis is units of deferoxamine remaining in solution through monitoring of the 262 nm absorbance by UV spectroscopy. Trend line 1203 illustrates deferoxamine degradation in PBS solution (DEF/PBS). Trend line 1201 illustrates the degradation of deferoxamine in a PBS solution and dilute PEG-HCC (DEF/PEG). Trend line 1202 illustrates deferoxamine degradation in a PBS that had nitrogen gas bubbled through it (DEF/N2).
An additional advantage of this formulation is that it prevents the oxidative breakdown of the deferoxamine molecule, likely through an interaction with the antioxidant capacity of the parent nanomaterial (FIG. 12). This is a tremendous advantage clinically because current deferoxamine has a short shelf life when prepared for intravenous administration, which could be dramatically extended through this formulation and thereby be useful for settings other than the hospital, such as in a battle field, automobile trauma, or other setting in which tissue injury must be rapidly treated.

Chain of ferricytochrome C (CytCox) (P99999 whole entry): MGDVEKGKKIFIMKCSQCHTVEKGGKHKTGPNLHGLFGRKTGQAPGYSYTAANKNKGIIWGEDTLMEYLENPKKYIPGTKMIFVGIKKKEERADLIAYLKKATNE

Consider `CN(C)c1ccc2nc3ccc(=[N+](C)C)cc-3sc2c1` [MB, Methylene blue], for which the Cell survival entry in data set [1] is “dose-dependent reduction in cell survival”. Besides, the Vmax in data set [2] amounted to 1.432e-07 M/s. The same compound registered a Midpoint reduction potential in data set [3] of approximately 0 mV.

On to `CC(=O)N(O)CCCCCNC(=O)CCC(=O)N(O)CCCCCNC(=O)CCC(=O)N(O)CCCCCN` [deferoxamine], for which the “Half-life in circulation (t1/2)” value in data set [4] was “≈ 0.3 h”. The “Deferoxamine degradation in solution” value in data set [5] (PBS solution with dilute PEG-HCC (DEF/PEG)) and in data set [5] (PBS with nitrogen gas bubbled through (DEF/N2)) was “no detectable degradation” in each case.
